Results published in publication PMC9102502, “The Influence of Selected Antipsychotic Drugs on Biochemical Aspects of Alzheimer’s Disease” (International Journal of Molecular Sciences, 2022).
Like-named read-outs stand apart in the source and are kept apart here.

What was measured:
[1] = biological target: T1, human plasma butyrylcholinesterase (Homo sapiens, UniProt P06276); assay: BuChE inhibition, modified Ellman's method; type: biochemical; settings: control 0.302 ± 0.029 A/min
T1 construct: The solution of plasma 200-fold diluted with 0.9% NaCl; from tissue; host or cells: citrated plasma from blood of healthy human donors
T1 sequence (P06276 29-602): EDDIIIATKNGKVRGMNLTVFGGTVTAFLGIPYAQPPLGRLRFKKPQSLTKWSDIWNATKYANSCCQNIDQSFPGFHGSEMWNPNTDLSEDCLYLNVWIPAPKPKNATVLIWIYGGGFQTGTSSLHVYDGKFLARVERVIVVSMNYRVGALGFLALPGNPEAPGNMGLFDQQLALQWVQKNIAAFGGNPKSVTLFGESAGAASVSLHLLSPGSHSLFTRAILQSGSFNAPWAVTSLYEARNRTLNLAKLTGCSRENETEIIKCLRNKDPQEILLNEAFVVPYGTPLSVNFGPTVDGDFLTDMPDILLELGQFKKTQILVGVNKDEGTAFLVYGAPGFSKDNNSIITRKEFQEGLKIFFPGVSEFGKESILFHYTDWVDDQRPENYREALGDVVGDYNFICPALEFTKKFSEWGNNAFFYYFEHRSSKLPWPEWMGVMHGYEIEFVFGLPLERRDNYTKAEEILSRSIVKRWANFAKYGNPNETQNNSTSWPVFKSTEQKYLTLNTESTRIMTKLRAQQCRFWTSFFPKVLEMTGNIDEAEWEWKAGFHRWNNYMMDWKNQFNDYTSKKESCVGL
Experimental: (§1) The activity of both cholinesterases (AChE and BuChE) were assessed spectrophotometrically according to the Ellman’s method with some modifications by Worek et al.. This test development included experimental determination of the optimal testing conditions. For all measurements, 37 °C was used as the best temperature for enzymatic determinations in material of human origin.
(§2) The solution of plasma 200-fold diluted with 0.9% NaCl and solution of hemolyzed erythrocytes diluted 400-fold with 0.9% were incubated (37 °C, 15 min) with 5 μL DTNB (0.01 mol/L) and 10 μL tested compound at a wider range of concentration than the therapeutic range in order to assess the overall effect of the compound on human esterases (AChE and BuChE). The controls without antipsychotics, containing only DTNB and diluted plasma or diluted solution of hemolyzed erythrocytes, were prepared. […] The final volume of a sample was 500 μL. […] The maximal velocity of the reaction was determined on the basis of changes in absorbance over time.
(§3) AChE SI (selectivity index) was calculated by using the following formula: SI = IC50 of BuChE/IC50 of AChE. However, BuChE SI was defined as IC50 of AChE/IC50 of BuChE. Maximal velocity (Vmax) and the Michaelis constant (Km) were calculated with the use of linear regression—according to the Hanes–Woolf plot.

HUVEC cells = assay: WST-1 viability under AAPH-induced oxidative stress, HUVEC; type: cell-based, human; settings: ½ × TPC (bromperidol 12.5 μg/L, quetiapine 200 μg/L); AAPH 17.5 mmol/L; relative to pure medium control
Experimental: (§4) WST-1 assay (Takara, Takara Bio Europe, Saint-Germain-en-Laye, France) was used to assess the effects of antipsychotics on the growth of HUVEC and astrocytes. The experiments were conducted as described previously. HUVEC were seeded at a density of 7500 cells, and astrocytes at 5000 cells per well on 96-well microplates and cultured for 24 h followed by treatment with compounds at ½ × TPCmax and TPCmax or pure medium as a control (v = 100 μL) for another 24 h (37 °C, 5% CO2). Subsequently, the cells were washed with culture medium (100 μL) and WST-1 reagent diluted in medium (10 μL of reagent + 90 μL of medium) was added. The plates were incubated at 37 °C in 5% CO2 for another 90 min for HUVEC and 60 min for astrocytes. The absorbance was read at 450 nm using a microplate reader (iMARK, Bio-Rad, Hercules, CA, USA). The cells viability was expressed as a percentage of the control samples which constituted 100% viability.
(§5) Moreover, the WST-1 assay was used to evaluate potential protective effects of antipsychotics on the growth of HUVEC and astrocytes under conditions of AAPH-induced oxidative stress. The experimental conditions were the same as in viability studies. AA at the final concentration of 10 μg/mL was used as an antioxidant control. After reaching the confluence, the antipsychotics were added at concentrations equaling ½ × TPCmax and TPCmax. After 1 h incubation under standard conditions, 50 μL AAPH was added to the wells containing tested compounds or AA. The AAPH concentration was chosen on the basis of preliminary experiments—17.5 mmol/L in HUVEC experiments, and 15.0 mmol/L in the case of astrocytes.

[2] = biological target: T2, recombinant human β-amyloid (1–42) (Homo sapiens, UniProt P05067); assay: Beta-amyloid aggregation, Thioflavin T fluorescence; type: biochemical; settings: 10 μg/L; time range from 10 min to 24 h incubation
T2 construct: recombinant human β-amyloid (1–42; ultrapure); purchased Sigma-Aldrich (St. Louis, MO, USA)
T2 sequence (P05067 672-713 limits assumed): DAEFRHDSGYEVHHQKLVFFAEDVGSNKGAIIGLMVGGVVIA
Experimental: Aβ42 peptide was dissolved in DMSO and left to hydrate for a few minutes. The solution was centrifuged at 10,000 rpm for 5 min at 4 °C to separate any precipitated material. The solution at a concentration of 220 μmol/L was stored in small aliquots at a temperature of −30 °C and before each experiment it was restored at 37 °C for 15 min. Test samples containing Aβ42 solution at the final concentration of 20 μmol/L was incubated with antipsychotics at concentrations equaling their TPC and 1/2 × TPC (v = 10 µL). The final volume of the test samples was 100 μL. The positive control constituted a sample of Aβ42 peptide, whereas the negative control contained tannic acid at the final concentrations of 0.1 µmol/L and 10 µmol/L. The fibrillation reaction was set up by addition of thioflavin ThT dye at a concentration of 5 µmol/L. The fluorescence intensity was measured at room temperature with Ex/Em = 440 nm/484 nm (Synergy H1; BioTek, Winooski, VT, USA). The measurements of fluorescence intensity expressed as relative fluorescence units (RFU) were taken at 10, 30, 60 and 90 min and then after 24 and 48 h. The fluorescence intensity measured for control equaled 100% of Aβ aggregation and it was used to estimate the inhibitory properties of the tested antipsychotics.

astrocytes = assay: WST-1 viability under AAPH-induced oxidative stress, astrocytes; type: cell-based, human
Experimental: as §4, §5

AChE = AChE (Homo sapiens, UniProt P22303); assay: Synergism of antipsychotics with donepezil/rivastigmine (binary mixtures), AChE; settings: ComboSyn;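 further: antipsychotic concentration kept fixed across all measurements, selected from estimated therapeutic plasma levels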
AChE, sequence (P22303 32-617 isoform P22303-2 limits assumed): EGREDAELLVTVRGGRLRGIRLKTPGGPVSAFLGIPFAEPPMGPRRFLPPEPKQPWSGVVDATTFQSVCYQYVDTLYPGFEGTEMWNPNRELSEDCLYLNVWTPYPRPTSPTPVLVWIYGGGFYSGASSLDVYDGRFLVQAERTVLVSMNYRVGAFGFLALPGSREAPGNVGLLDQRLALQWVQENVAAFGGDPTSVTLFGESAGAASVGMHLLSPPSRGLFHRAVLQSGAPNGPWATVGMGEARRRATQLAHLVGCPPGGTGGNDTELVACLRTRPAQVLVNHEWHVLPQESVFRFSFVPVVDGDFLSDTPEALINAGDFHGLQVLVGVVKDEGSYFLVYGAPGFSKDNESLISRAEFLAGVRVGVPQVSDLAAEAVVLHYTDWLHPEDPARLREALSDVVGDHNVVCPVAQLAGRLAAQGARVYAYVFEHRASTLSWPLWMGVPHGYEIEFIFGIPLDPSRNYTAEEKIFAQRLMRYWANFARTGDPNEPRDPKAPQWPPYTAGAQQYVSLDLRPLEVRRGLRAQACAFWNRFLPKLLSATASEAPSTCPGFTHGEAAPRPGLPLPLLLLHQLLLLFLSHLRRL

[3] = biological target: T3, human erythrocyte acetylcholinesterase (Homo sapiens, UniProt P22303); assay: AChE inhibition, modified Ellman's method; type: biochemical; settings: control 0.258 ± 0.016 A/min
T3 construct: solution of hemolyzed erythrocytes diluted 400-fold; from tissue; host or cells: hemolyzed erythrocytes from blood of healthy human donors
T3 sequence (P22303 32-617 isoform P22303-2 limits assumed): as above
Experimental: as §1, §2, §3

BuChE [4] = biological target: BuChE (Homo sapiens, UniProt P06276); assay: Synergism of antipsychotics with donepezil/rivastigmine (binary mixtures), BuChE; settings: ComboSyn;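 further: combination index derived by median-effect analysis of combined drug effects on the cholinesterase, with values below 1 meaning synergism, exactly 1 additivity and above 1 antagonism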
BuChE, sequence (P06276 29-602): as the sequence (P06276 29-602) above

BuChE [5] = settings: read-out: IC50 BuChE, cited from earlier work
[6] = rivastigmine 5 μmol/L + antipsychotic at TPCmax

## O=C(CCCN1CCC(n2c(O)nc3ccccc32)CC1)c1ccc(F)cc1 [Benperidol, benperidol]
[1]; 75 µg/L
  BuChE reaction velocity: 0.283 ± 0.029 A/min
[1]; 100 µg/L
  BuChE reaction velocity: 0.279 ± 0.021 A/min
HUVEC cells
  viability of HUVEC under AAPH: 82.9%
[2]
  inhibition of Aβ: 42.1–53.3%
astrocytes; benperidol 5 and 10 μg/L, penfluridol 12.5 μg/L, pimozide 15 μg/L, promazine 25 and 50 μg/L
  astrocyte viability compared with the control (pure AAPH): statistically significant increase
astrocytes; ½ × TPC (benperidol 5 μg/L, bromperidol 12.5 μg/L), AAPH 15 mmol/L
  astrocyte viability under AAPH: 81.9%
AChE; donepezil 0.005 μmol/L + antipsychotic at TPCmax, CI < 1 synergism, > 1 antagonism
  CI (combination index), AChE: 0.83
AChE; donepezil 0.01 μmol/L + antipsychotic at TPCmax
  CI (combination index), AChE: 1.09
AChE; donepezil 0.02 μmol/L + antipsychotic at TPCmax
  CI (combination index), AChE: 1.04
AChE; donepezil 0.05 μmol/L + antipsychotic at TPCmax
  CI (combination index), AChE: 1.02
AChE; donepezil 0.1 μmol/L + antipsychotic at TPCmax
  CI (combination index), AChE: 1.24
AChE; [6]
  CI (combination index), AChE: 0.31
AChE; rivastigmine 10 μmol/L + antipsychotic at TPCmax
  CI (combination index), AChE: 0.44
AChE; rivastigmine 15 μmol/L + antipsychotic at TPCmax
  CI (combination index), AChE: 0.48
AChE; rivastigmine 25 μmol/L + antipsychotic at TPCmax
  CI (combination index), AChE: 0.57
AChE; rivastigmine 40 μmol/L + antipsychotic at TPCmax
  CI (combination index), AChE: 0.62
AChE; rivastigmine 50 μmol/L + antipsychotic at TPCmax
  CI (combination index), AChE: 0.63
AChE; rivastigmine 75 μmol/L + antipsychotic at TPCmax
  CI (combination index), AChE: 0.66
AChE; rivastigmine 100 μmol/L + antipsychotic at TPCmax
  CI (combination index), AChE: 0.65
[3]; 75 µg/L
  AChE reaction velocity: 0.250 ± 0.015 A/min
[3]; 100 µg/L
  AChE reaction velocity: 0.239 ± 0.014 A/min
BuChE [4]; donepezil 2 μmol/L + antipsychotic at TPCmax
  CI (combination index), BuChE: 0.40
BuChE [4]; donepezil 5 μmol/L + antipsychotic at TPCmax
  CI (combination index), BuChE: 0.50
BuChE [4]; donepezil 10 μmol/L + antipsychotic at TPCmax
  CI (combination index), BuChE: 0.57
BuChE [4]; donepezil 20 μmol/L + antipsychotic at TPCmax
  CI (combination index), BuChE: 0.60
BuChE [4]; donepezil 50 μmol/L + antipsychotic at TPCmax
  CI (combination index), BuChE: 0.69
BuChE [4]; donepezil 100 μmol/L + antipsychotic at TPCmax
  CI (combination index), BuChE: 0.84
BuChE [4]; rivastigmine 0.05 μmol/L + antipsychotic at TPCmax
  CI (combination index), BuChE: 0.27
BuChE [4]; rivastigmine 0.1 μmol/L + antipsychotic at TPCmax
  CI (combination index), BuChE: 0.32
BuChE [4]; rivastigmine 0.25 μmol/L + antipsychotic at TPCmax
  CI (combination index), BuChE: 0.56
BuChE [4]; rivastigmine 0.5 μmol/L + antipsychotic at TPCmax
  CI (combination index), BuChE: 0.91
BuChE [4]; rivastigmine 0.75 μmol/L + antipsychotic at TPCmax
  CI (combination index), BuChE: 0.95
BuChE [4]; rivastigmine 1 μmol/L + antipsychotic at TPCmax
  CI (combination index), BuChE: 1.00
BuChE [4]; rivastigmine 2.5 μmol/L + antipsychotic at TPCmax
  CI (combination index), BuChE: 1.08
BuChE [4]; [6]
  CI (combination index), BuChE: 1.00
